Data from BindingDB's records for doi:10.1021/acs.jmedchem.7b00585 (The Scripps Research Institute, 2017).

Key:
[1] = target: T1, Estrogen receptor (Homo sapiens, UniProt P03372); assay: (§1) Displacement of [3H]estradiol from full-length human ERalpha receptor by scintillation counting
T1 sequence (P03372 whole entry): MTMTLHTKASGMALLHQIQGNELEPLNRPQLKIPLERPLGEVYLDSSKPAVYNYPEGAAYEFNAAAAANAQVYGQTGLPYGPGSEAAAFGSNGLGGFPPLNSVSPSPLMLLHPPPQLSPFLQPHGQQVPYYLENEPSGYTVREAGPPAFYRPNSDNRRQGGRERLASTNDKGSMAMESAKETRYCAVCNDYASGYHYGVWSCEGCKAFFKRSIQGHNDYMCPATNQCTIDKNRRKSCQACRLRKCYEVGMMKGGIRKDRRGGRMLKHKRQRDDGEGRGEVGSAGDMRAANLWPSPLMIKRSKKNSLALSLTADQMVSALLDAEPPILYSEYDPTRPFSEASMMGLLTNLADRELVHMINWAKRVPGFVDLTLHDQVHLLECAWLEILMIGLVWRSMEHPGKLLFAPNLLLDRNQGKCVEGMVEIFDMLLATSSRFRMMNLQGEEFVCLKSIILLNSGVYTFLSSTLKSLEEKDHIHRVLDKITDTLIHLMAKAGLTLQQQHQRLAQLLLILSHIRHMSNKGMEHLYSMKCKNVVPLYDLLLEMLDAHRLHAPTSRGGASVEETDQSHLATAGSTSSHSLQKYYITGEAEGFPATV

[2] = target: T1, Estrogen receptor; assay: ChEBML_1664056; description: as §1

Row | Ki [1] [nM] | Ki [2] [nM] | Compound
1 | 0.43 |  | COC(=O)/C=C/c1ccc(C(=C2C3CC4CC(C3)CC2C4)c2ccc(O)cc2)cc1
2 | 0.71 |  | O=C(/C=C/c1ccc(C(=C2C3CC4CC(C3)CC2C4)c2ccc(O)cc2)cc1)OCCCO
3 | 0.43 |  | O=C(/C=C/c1ccc(C(=C2C3CC4CC(C3)CC2C4)c2ccc(O)cc2)cc1)NCCCO
4 | 0.37 |  | NCCCNC(=O)/C=C/c1ccc(C(=C2C3CC4CC(C3)CC2C4)c2ccc(O)cc2)cc1
5 | 0.37 |  | O=C(/C=C/c1ccc(C(=C2C3CC4CC(C3)CC2C4)c2ccc(O)cc2)cc1)OCCO
6 |  | 0.71 | CCCCNC(=O)/C=C/c1ccc(C(=C2C3CC4CC(C3)CC2C4)c2ccc(O)cc2)cc1
7 | 0.71 |  | CCCCN(C)C(=O)/C=C/c1ccc(C(=C2C3CC4CC(C3)CC2C4)c2ccc(O)cc2)cc1
